From US20190022061A1 (priority 2017, published 2019)

Test system: Diet-induced obesity (DIO) mice
Test: Blood glucose level in DIO mice
Format: in vivo, C57BL/6J mice
Method: In this study, RAASUS products (KH103, KHJ and KHGD) were dosed three times a day (T ID) for 99 days. […] On day 63 post dosing, OGTT test were conducted for all of the mice. […] On day −5, day 14, day 28 the non-fast blood was collected to determine the non-fast BG, insulin, TG, HDL-C, LDL-C and TCHO level. On day 42, day 56, day 70, day 84 the fast blood was collected to determine the fast BG, insulin, TG, HDL-C, LDL-C and TCHO level.
Male C57BL/6J mice (Shanghai Laboratory Animal Center, Shanghai, China, 5 weeks) were fed with high fat diet (D12492i, Research Diet, New Brunswick, N.J.) (caloric contribution: protein, 20%; fat, 60%; carbohydrates, 20%) ad lib for 21 weeks for the induction of obesity.
The mice of Group 3, Group 4 were orally dosed with KH103, KHJ respectively three times per day at 9:00, 13:00, 17:00 and free drinl<KH103, KHJ respectively at day and night from Day O to Day 99. […]
The random blood glucose, insulin level were measured using tailing nick once per two weeks on day −5, day 14, day 28.
The fast blood glucose (fast from 17:30 to 8:00 AM) insulin level were measured using tailing nick once per two weeks on day 42, day 56, day 70, day 84. […]
Blood Glucose: Blood glucose was determined using the Glucosemeter (Johnson and Johnson) and the Glucose Test Strips (Johnson and Johnson).

## CC(C)c1c(C(=O)Nc2ccccc2)c(-c2ccccc2)c(-c2ccc(F)cc2)n1CC[C@@H](O)C[C@@H](O)CC(=O)O [Atorvastatin]
DIO mice, po three times a day, compared with the vehicle groups, 12 weeks post dose
  blood glucose level: significantly decrease
Animal study, diabetics, general statement
  blood sugar level: lower down
